Results taken from publication PMC13441234 (2025).

What was measured:
[1] = test system: Phenylalanine aptamer (on 8 nm SiO2 blocking layer) (DNA, aptamer) CGACCGCGTTTCCCAAGAAAGCAAGTATTGGTTGGTCG; test: square wave voltammetry, electrochemical aptamer sensor; conditions: 1x PBS, room temperature, 300 Hz, 50 mV amplitude, apparent, immobilised aptamer, n = 3 electrodes
[2] = test system: Phenylalanine aptamer (on gold with alkylthiolate/MCH blocking layer) (DNA, aptamer) CGACCGCGTTTCCCAAGAAAGCAAGTATTGGTTGGTCG; test: as above; conditions: 1x PBS (cation concentrations not given); apparent; 300 Hz; immobilised aptamer; whether own (Figure A2) or literature value not explicit

N[C@@H](Cc1ccccc1)C(=O)O
binding constant [1]: 12 µM | binding constant [2]: 400 µM
